Measurements published in paper PMC4855620, “Structure‐activity relationship of the peptide binding‐motif mediating the BRCA2:RAD51 protein–protein interaction” (Febs Letters, 2016).
“Also recorded” adds a separate entry of the source. Like-named read-outs stand apart in the source and are kept apart here. Residues, ends and D or L forms follow the SMILES beside them.

Experiments:
[1] = target: HumRadA2 (humanised, monomeric RadA; surrogate for RAD51) (Pyrococcus furiosus, UniProt O74036); assay: Isothermal titration calorimetry of peptides against HumRadA2; type: binding; settings: for ΔH: Tris pH 7.5, 100 mM NaCl, low c-value conditions, ± = model-fitting error; for TΔS: ΔS derived from ΔG by subtracting ΔH; for Change in binding affinity relative to FHTA: ITC K D compared with FHTA
Procedure: Protein expression and purification was performed as described previously 15. In brief, monomeric HumRadA2 was expressed in E. coli using T7‐based expression vector at 37 °C for 3 h. Soluble cell lysate was heat treated to precipitate most of the cellular proteins and the soluble fraction containing HumRadA2 was purified using a combination of cation exchange chromatography at pH 6.0 and size‐exclusion chromatography in 10 mM MES, 100 mM NaCl pH 6.0 buffer. Protein concentration was determined using the calculated extinction coefficient at 280 nm, and stored at −80 °C in small aliquots after flash freezing.
Isothermal titration calorimetry experiments were performed at 25 °C on a MicroCal iTC200. HumRadA2 (600 μM in 20 mM MES pH 6.0 with 100 mM NaCl and 0.5 mM EDTA) was diluted with Tris buffer (200 mM, pH 7.5 with 100 mM NaCl) to 64–83 μM. […] The peptide solution was titrated into the protein solution; 16 injections (2.4 μL) of 4.8 s duration were made at 80‐s intervals. The initial injection of ligand (0.4 μL) was discarded during data analysis. […] The data were processed and thermodynamic parameters obtained by fitting the data to a single‐site‐binding model using Origin software and fixing the stoichiometry as 1.0 for weak‐binding ligands 16.

[2] = target: HumRadA2 (humanised, monomeric RadA from Pyrococcus furiosus) (Pyrococcus furiosus) (UniProt O74036); assay: ITC; peptide (2.5-5 mM) titrated into HumRadA2 (64-83 μM) at 25 °C, MicroCal iTC200, 200 mM Tris pH 7.5, 100 mM NaCl; single-site model, stoichiometry fixed as 1.0 for weak-binding ligands; low c-value conditions
[3] = target: HumRadA2 (humanised, monomeric RadA from Pyrococcus furiosus) (Pyrococcus furiosus) (UniProt O74036); assay: as above; remark: listed apart in the source
[4] = system: RAD51; settings: RAD51 oligomerisation sequence FTTA mutated; cited from earlier work
From the text: Table 1 Summary of FxxA‐relevant mutations previously reported and degree of characterisation. The mutation, relevant peptide context, resulting FxxA motif sequence and experimental technique for each entry is given. For clarity, mutated residues are shown in bold | column: Effect

[5] = ITC, 25 °C, MicroCal iTC200, peptide 2.5–5 mM in 200 mM Tris pH 7.5, 100 mM NaCl titrated into 64–83 μM HumRadA2, single-site model, stoichiometry fixed at 1.0 for weak binders, ± = fitting error

Q: Which results are given for `CC(=O)N[C@@H](Cc1ccccc1)C(=O)N[C@@H](Cc1c[nH]cn1)C(=O)N[C@@H](C)C(=O)N[C@@H](C)C(N)=O` [FHAA] (Ac-FHAA-NH2)?
A: Kd [1, 5]: 675 ± 60 µM; ΔH ([1]; ITC, 25 °C): -7.948 ± 0.466 kcal/mol; TΔS ([1]; ITC, 25 °C): -3.636 kcal/mol

Q: What does the source list for `CC(=O)N[C@@H](Cc1ccccc1)C(=O)N[C@@H](Cc1c[nH]cn1)C(=O)N1CCC[C@H]1C(=O)N[C@@H](C)C(N)=O` [FHPA] (Ac-FHPA-NH2)?
A: Kd [1, 5]: 113 ± 3 µM; ΔH ([1]; ITC, 25 °C): -2.155 ± 0.026 kcal/mol; TΔS ([1]; ITC, 25 °C): 3.218 kcal/mol

Q: With `CC(=O)N[C@@H](Cc1ccccc1)C(=O)N[C@@H](Cc1c[nH]cn1)C(=O)N[C@H](C(=O)N[C@@H](C)C(N)=O)[C@@H](C)O` [FHTA] (Ac-FHTA-NH2) as the molecule, how does the ΔH ([1]; ITC, 25 °C) read?
A: -2.388 ± 0.094 kcal/mol

Q: And the TΔS ([1]; ITC, 25 °C)?
A: 2.453 kcal/mol

Q: For `CC(=O)N[C@@H](Cc1ccccc1)C(=O)N[C@@H](Cc1c[nH]cn1)C(=O)N[C@H](C(=O)NCC(N)=O)[C@@H](C)O` [FHTG] (Ac-FHTG-NH2), which “Change in binding affinity relative to FHTA” value [1] is on record?
A: approximately sixfold drop in binding affinity

Q: What about the Kd [1, 5] of the same molecule?
A: 1590 ± 300 µM

Q: What about the ΔH ([1]; ITC, 25 °C) of the same molecule?
A: -5.518 ± 0.924 kcal/mol

Q: And the TΔS ([1]; ITC, 25 °C)?
A: -1.702 kcal/mol

Q: With `CC[C@H](NC(=O)[C@@H](NC(=O)[C@H](Cc1c[nH]cn1)NC(=O)[C@H](Cc1ccccc1)NC(C)=O)[C@@H](C)O)C(N)=O` [FHTU] (HELM PEPTIDE1{[ac].F.H.T.[Abu].[am]}$$$$V2.0) as the molecule, how does the Kd [1, 5] read?
A: 680 ± 51 µM

Q: With `CC(=O)N[C@@H](Cc1ccccc1)C(=O)N[C@@H](CC(N)=O)C(=O)N[C@H](C(=O)N[C@@H](C)C(N)=O)[C@@H](C)O` [FNTA] (Ac-FNTA-NH2) as the molecule, how does the Kd [1, 5] read?
A: 613 ± 44 µM

Q: What about the ΔH ([1]; ITC, 25 °C) of the same molecule?
A: -4.036 ± 0.177 kcal/mol

Q: And the TΔS ([1]; ITC, 25 °C)?
A: 0.346 kcal/mol

Q: With `CC(=O)N[C@@H](Cc1c[nH]c2ccccc12)C(=O)N[C@@H](Cc1c[nH]cn1)C(=O)N1CCC[C@H]1C(=O)N[C@@H](C)C(N)=O` [WHPA] (Ac-WHPA-NH2) as the molecule, how does the “Change in binding affinity relative to FHTA” value [1] read?
A: no improvement

Q: What about the Kd [1, 5] of the same molecule?
A: 330 ± 25 µM

Q: What about the ΔH ([1]; ITC, 25 °C) of the same molecule?
A: -6.801 ± 0.318 kcal/mol

Q: What about the TΔS ([1]; ITC, 25 °C) of the same molecule?
A: -2.044 kcal/mol

Q: Which “Change in binding affinity relative to FHTA” value [1] does the source give for `CC(=O)N[C@@H](Cc1c[nH]c2ccccc12)C(=O)N[C@@H](Cc1c[nH]cn1)C(=O)N[C@H](C(=O)N[C@@H](C)C(N)=O)[C@@H](C)O` [WHTA] (Ac-WHTA-NH2) here?
A: increase the binding affinity of the peptide approximately threefold

Q: And the Kd [1, 5]?
A: 93 ± 3 µM

Q: And the ΔH ([1]; ITC, 25 °C)?
A: -2.768 ± 0.034 kcal/mol

Q: And the TΔS ([1]; ITC, 25 °C)?
A: 2.727 kcal/mol

Q: For “FHTU tetrapeptide (U = α-amino butyric acid)”, which dH [2] is on record?
A: -14.6 kcal/mol

Q: Which “K D” value [1, 5] does the source give for “FPTA [N-acetylated, C-amide terminated tetrapeptide FPTA]” here?
A: no affinity for the protein; also recorded: No detectable binding

B1: FHTG tetrapeptide (peptide)
peptide: Ac-FHTG-NH2
Q: Which dH [2] does the source give for B1 here?
A: -5.52 kcal/mol

B2: FHAA tetrapeptide (peptide)
peptide: Ac-FHAA-NH2
Q: For B2, which dH [2] is on record?
A: -7.95 kcal/mol

B3: WHTA tetrapeptide (peptide)
peptide: Ac-WHTA-NH2
Q: For B3, which dH [2] is on record?
A: -2.77 kcal/mol

B4: FNTA tetrapeptide (peptide)
peptide: Ac-FNTA-NH2
Q: For B4, which dH [2] is on record?
A: -4.04 kcal/mol

B5: FHTA tetrapeptide (FxxA motif of BRC4 of BRCA2) (peptide)
peptide: Ac-FHTA-NH2
Q: For B5, which Kd [2] is on record?
A: 280 µM

Q: And the dH [2]?
A: -2.39 kcal/mol

B6: FHPA tetrapeptide (peptide)
peptide: Ac-FHPA-NH2
Q: Which dH [2] does the source give for B6 here?
A: -2.16 kcal/mol

B7: WHPA tetrapeptide (peptide)
peptide: Ac-WHPA-NH2
Q: What does the source list for B7?
A: Kd [3]: 690 µM; dH [2]: -6.8 kcal/mol

B8: RAD51 A89E: RAD51 with oligomerisation sequence FTTA mutated to FTTE (literature) (protein, UniProt Q06609 2-339, looked up, variant A89E)
DNA repair protein RAD51 …: AMQMQLEANADTSVEEESFGPQPISRLEQCGINANDVKKLEEAGFHTVEAVAYAPKKELINIKGISEAKADKILAEAAKLVPMGFTTETEFHQRRSEIIQITTGSKELDKLLQGGIETGSITEMFGEFRTGKTQICHTLAVTCQLPIDRGGGEGKAMYIDTEGTFRPERLLAVAERYGLSGSDVLDNVAYARAFNTDHQTQLLYQASAMMVESRYALLIVDSATALYRTDYSGRGELSARQMHLARFLRMLLRLADEFGVAVVITNQVVAQVDGAAMFAADPKKPIGGNIIAHASTTRLYLRKGRGETRICKIYDSPCLPEAEAMFAINADGVGDAKD
Q: For B8, which “Effect of mutation (binding)” value [4] is on record?
A: No binding

B9: RAD51 F86E: RAD51 with oligomerisation sequence FTTA mutated to ETTA (literature) (protein, UniProt Q06609 2-339, looked up, variant F86E)
DNA repair protein RAD51 …: AMQMQLEANADTSVEEESFGPQPISRLEQCGINANDVKKLEEAGFHTVEAVAYAPKKELINIKGISEAKADKILAEAAKLVPMGETTATEFHQRRSEIIQITTGSKELDKLLQGGIETGSITEMFGEFRTGKTQICHTLAVTCQLPIDRGGGEGKAMYIDTEGTFRPERLLAVAERYGLSGSDVLDNVAYARAFNTDHQTQLLYQASAMMVESRYALLIVDSATALYRTDYSGRGELSARQMHLARFLRMLLRLADEFGVAVVITNQVVAQVDGAAMFAADPKKPIGGNIIAHASTTRLYLRKGRGETRICKIYDSPCLPEAEAMFAINADGVGDAKD
Q: With B9 as the molecule, how does the “Effect of mutation (binding)” value [4] read?
A: No binding
